These results are taken from patent publication US8524715B2, “Phenoxyacetic acid derivatives useful for treating respiratory diseases” (Astrazeneca AB, priority 2004, dated 2013).

For the assay, the target named is T1, rhCRTh2 (Homo sapiens, UniProt Q9Y5Y4).
T1 construct: expressed in transfected cells; host or cells: HEK cells (membrane preparation)
T1 sequence (Q9Y5Y4 1-395): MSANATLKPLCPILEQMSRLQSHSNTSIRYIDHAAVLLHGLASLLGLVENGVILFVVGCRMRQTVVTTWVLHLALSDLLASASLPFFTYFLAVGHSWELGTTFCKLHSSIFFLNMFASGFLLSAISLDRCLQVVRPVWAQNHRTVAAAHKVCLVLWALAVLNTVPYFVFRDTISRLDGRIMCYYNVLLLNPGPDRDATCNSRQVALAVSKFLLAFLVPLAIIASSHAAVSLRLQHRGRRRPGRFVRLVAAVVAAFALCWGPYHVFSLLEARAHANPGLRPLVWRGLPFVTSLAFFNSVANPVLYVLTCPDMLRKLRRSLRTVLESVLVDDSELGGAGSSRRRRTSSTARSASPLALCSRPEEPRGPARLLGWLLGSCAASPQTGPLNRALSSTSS
Briefly: Ligand Binding Assay ([3H]PGD2 SPA binding). The following applies: [3H]PGD2 binding, membranes of HEK cells expressing rhCRTh2/Gα16, SPA beads, 2 hours room temperature; read-out: pIC50 value (converted). On the procedure:
[^3H]PGD2 was purchased from Perkin Elmer Life Sciences with a specific activity of 100-210 Ci/mmol. All other chemicals were of analytical grade.
HEK cells expressing rhCRTh2/Gα16 were routinely maintained in DMEM containing 10% Foetal Bovine Serum (HyClone), 1 mg/ml geneticin, 2 mM L-glutamine and 1% non-essential amino acids. For the preparation of membranes, the adherent transfected HEKcells were grown to confluence in two layer tissue culture factories (Fisher, catalogue number TKT-170-070E). Maximal levels of receptor expression were induced by addition of […] sodium butyrate for the last 18 hours of culture. The adherent cells were washed once with phosphate buffered saline (PBS, 50 ml per cell factory) and detached by the addition of 50 ml 0.1 mM dithiothreitol, 1 mM EDTA, 0.1 mM phenyl methyl sulphonyl fluoride and 100 μg/ml bacitracin]. Cells were pelleted by centrifugation at 220×g for 10 minutes at 4° C., re-suspended in half the original volume of fresh membrane homogenisation buffer and disrupted using a Polytron homogeniser for 2×20 second bursts keeping the tube in ice at all times. Unbroken cells were removed by centrifugation at 220×g for 10 minutes at 4° C. and the membrane fraction pelleted by centrifugation at 90000×g for 30 minutes at 4° C. The final pellet was re-suspended in 4 ml of membrane homogenisation buffer per cell factory used and the protein content determined. Membranes were stored at −80° C. in suitable aliquots.
All assays were performed in Corning clear bottomed, white 96-well NBS plates (Fisher). Prior to assay, the HEK cells membranes containing CRTh2 were coated onto SPA PVT WGA beads (Amersham). For coating membranes were incubated with beads at typically 25 μg membrane protein per mg beads at 4° C. with constant agitation overnight. (The optimum coating concentrations were determined for each batch of membranes) The beads were pelleted by centrifugation (800×g for 7 minutes at 4° C.), washed once with assay buffer (50 mM HEPES pH 7.4 containing 5 mM magnesium chloride) and finally re-suspended in assay buffer at a bead concentration of 10 mg/ml.
Each assay contained 20 μl of 6.25 nM [^3H]PGD2, 20 μl membrane saturated SPA beads both in assay buffer and 10 μl of compound solution or 13,14-dihydro-15-keto prostaglandin D2 (DK-PGD2, for determination of non-specific binding, Cayman chemical company).
Compounds and DK-PGD2 were dissolved in DMSO and diluted in the same solvent to 100× the required final concentration. […] The assay plate was incubated at room temperature for 2 hours and counted on a Wallac Microbeta liquid scintillation counter (1 minute per well).
For `O=C(O)COc1ccc(C(F)(F)F)cc1CN1CCCN(S(=O)(=O)c2ccc(F)cc2)CC1` [example 7, [2-[[4-[(4-fluorophenyl)sulfonyl]hexahydro-1H-1,4-diazepin-1-yl]methyl]-4-(trifluoromethyl)phenoxy]-acetic acid], the IC50 is 0.0891 µM.
To `C[C@H]1CN(Cc2cc(Cl)ccc2OCC(=O)O)CCN1C(=O)Cc1cccc(F)c1` [example 91, [4-chloro-2-[[(3S)-4-[(3-fluorophenyl)acetyl]-3-methyl-1-piperazinyl]methyl]phenoxy]-acetic Acid] belongs 0.0158 µM; to `CC1CN(Cc2cc(Cl)ccc2OCC(=O)O)CCN1S(=O)(=O)c1ccccc1` (stereo not shown) [example 57, [4-Chloro-2-[[3-methyl-4-(phenylsulfonyl)-1-piperazinyl]methyl]phenoxy]acetic Acid], 0.00501 µM.
To `O=C(O)COc1ccc(C(F)(F)F)cc1CN1CCN(C(=O)Cc2cccs2)CC1` [Example 42, [2-[[4-(2-thienylacetyl)-1-piperazinyl]methyl]-4-(trifluoromethyl)phenoxy]-acetic Acid] belongs 0.132 µM.
